This note sets out measurements from PubChem BioAssay (NCI).

What is called GI50 is the concentration giving 50% growth inhibition. The term TGI denotes the concentration giving total growth inhibition.

Test systems include ACHN renal; KM12 colon; UO-31 renal; BT-549 breast; HCC-2998 colon; UACC-62 melanoma; SK-MEL-5 melanoma; SF-295 CNS; K-562 leukemia; HCT-15 colon.
Assay in all cases: DTP human tumour cell line panel, 48 h

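Test compounds were applied to cells in 96-well plates for 48 hours at 5 doses. Here, GI50 denotes the concentration required for 50% inhibition of growth. TGI: total growth inhibition.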 Bounds are passed on as bounds.

With `COc1ccc2c(c1)Oc1nc(N)c(C#N)c(N)c1C2Sc1ccc(SC)cc1` (stereo not given), the GI50 in the assay on ACHN renal is 1.74 µM; with KM12 colon it was 1.78 µM; with UO-31 renal, 1.51 µM; in the assay on BT-549 breast it was 1.63 µM; in the assay with HCC-2998 colon it was 1.78 µM; with UACC-62 melanoma, 1.81 µM. Besides, the GI50 with SK-MEL-5 melanoma was 1.79 µM; in the assay on SF-295 CNS, 1.81 µM; in the assay on K-562 leukemia, 2.71 µM; in the assay with HCT-15 colon, 1.58 µM. Further, the TGI in the assay with ACHN renal is 3.11 µM; in the assay on KM12 colon, 3.49 µM; with UO-31 renal it was 2.84 µM; with BT-549 breast, 3 µM; in the assay with HCC-2998 colon, 3.36 µM; in the assay on UACC-62 melanoma, 3.33 µM. For the same molecule, the total growth inhibition concentration (TGI) in the assay with SK-MEL-5 melanoma came to 3.18 µM; in the assay with SF-295 CNS, 3.34 µM; with K-562 leukemia, 10.3 µM; with HCT-15 colon it was 3.33 µM.
On to `CCOc1ccc(NC(=O)Nc2cc(C(C)C)ccc2C)cc1`, for which the GI50 with ACHN renal was 4.37 µM; with KM12 colon it was 11.6 µM; in the assay on UO-31 renal it was 4.82 µM; with BT-549 breast it was 1.58 µM; in the assay on HCC-2998 colon, 11 µM; in the assay with UACC-62 melanoma it was 16.2 µM. Also, the GI50 with SK-MEL-5 melanoma is above 51.9 µM; with SF-295 CNS, 7.45 µM; with K-562 leukemia, 21.4 µM; in the assay on HCT-15 colon it was 28.7 µM. The concentration for total growth inhibition (TGI) with ACHN renal is 14.7 µM; with KM12 colon, above 100 µM; in the assay with UO-31 renal, 16.9 µM; with BT-549 breast, 6.24 µM; with HCC-2998 colon it was above 92.2 µM; with UACC-62 melanoma it was above 89.8 µM. Moreover, the TGI in the assay on SK-MEL-5 melanoma is above 100 µM; in the assay with SF-295 CNS it was 25.4 µM; with K-562 leukemia it was above 100 µM; with HCT-15 colon, above 100 µM.
For the molecule `CO/N=C(\c1ccccc1)c1cnn(-c2ccccc2)c1N`, the GI50 with ACHN renal, with KM12 colon, with UO-31 renal, with BT-549 breast, in the assay on HCC-2998 colon and with UACC-62 melanoma was above 25 µM each time. Besides, the GI50 with SK-MEL-5 melanoma, in the assay on SF-295 CNS, with K-562 leukemia and in the assay with HCT-15 colon was above 25 µM each time. Also, the concentration for total growth inhibition (TGI) in the assay on ACHN renal, in the assay with KM12 colon, in the assay on UO-31 renal, in the assay on BT-549 breast, with HCC-2998 colon and in the assay on UACC-62 melanoma was above 25 µM each time. Also, the TGI in the assay on SK-MEL-5 melanoma, in the assay on SF-295 CNS, with K-562 leukemia and in the assay on HCT-15 colon was above 25 µM throughout.
